Experiments:
[1] = biological target: T1, Dihydrofolate reductase (Mus musculus) (UniProt P00375); conditions: L1210
T1 sequence (whole entry): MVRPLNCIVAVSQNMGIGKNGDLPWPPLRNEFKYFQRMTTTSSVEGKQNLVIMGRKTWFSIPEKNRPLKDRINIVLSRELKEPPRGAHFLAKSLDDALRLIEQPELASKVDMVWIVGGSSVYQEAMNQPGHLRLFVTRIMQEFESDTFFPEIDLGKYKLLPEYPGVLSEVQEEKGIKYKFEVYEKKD
Description: Compound was tested for inhibition of the enzyme DiHydroFolate Reductase (DHFR) from murine L1210 leukemia cells

Homo sapiens [2] = species: Homo sapiens; experiment: Compound was tested for its inhibitory concentration against human leukemic lymphoblasts (CEM Cells) and a resistant subline (CEM / MTX).; assay type: functional; conditions: CCRF-CEM
Homo sapiens [3] = species: Homo sapiens; experiment: Compound was tested for its inhibitory concentration against human leukemic lymphoblasts (CEM Cells); assay type: functional; conditions: CCRF-CEM
Mus musculus [4] = experiment: Median Survival days of mice infected with L1210 leukemia cells at dose 0.5 mg/kg relative to that of 9 days for control; assay type: functional
Mus musculus [5] = experiment: Increase in life span of mice with L1210 leukemia cells at a dose of 0.5 mg/kg; assay type: functional
Mus musculus [6] = experiment: Median Survival days of mice infected with L1210 leukemia cells at dose 1 mg/kg relative to that of 9 days for control; assay type: functional
Mus musculus [7] = experiment: Increase in life span of mice with L1210 leukemia cells at a dose of 1 mg/kg; assay type: functional
Dihydrofolate reductase = biological target: T2, Dihydrofolate reductase (Mus musculus, UniProt P00375); experiment: biochemical
T2 sequence (P00375 whole entry): T1 sequence (whole entry)
Description: Compound was tested for its inhibitory concentration to inhibit the enzyme Dihydro Folate Reductase (DHFR) from murine L1210 leukemia cells.

Mus musculus [8] = species: Mus musculus; experiment: Compound was tested against weight change in mice with L1210 leukemia cells on 7 th Day at Dose 0.5 mg / kg; assay type: functional; conditions: at 0.5 mg/kg
Mus musculus [9] = species: Mus musculus; experiment: Compound was tested against weight change in mice with L1210 leukemia cells on 7 th Day at Dose 1 mg / kg; assay type: functional; conditions: at 1 mg/kg
L1210 [10] = experiment: Compound was tested for its inhibitory concentration to inhibit the growth of wild type L1210 cells.; assay type: functional, cell-based, Mus musculus
Mus musculus [11] = experiment: Median Survival days of mice infected with L1210 leukemia cells at dose 20 mg/kg relative to that of 9 days for control; assay type: functional
Mus musculus [12] = experiment: Increase in life span of mice with L1210 leukemia cells at a dose of 20 mg/kg; assay type: functional
Homo sapiens [13] = species: Homo sapiens; experiment: Compound was tested for its inhibitory concentration against human leukemic lymphoblasts ( CEM Cells ).; assay type: functional; conditions: CCRF-CEM
Mus musculus [14] = experiment: Median Survival days of mice infected with L1210 leukemia cells at dose 80 mg/kg relative to that of 9 days for control; Toxic; assay type: functional, organism-based; design: dose 80 mg/kg
Mus musculus [15] = experiment: Median Survival days of mice infected with L1210 leukemia cells at dose 40 mg/kg relative to that of 9 days for control; assay type: functional
Mus musculus [16] = species: Mus musculus; experiment: Compound was tested against weight change in mice with L1210 leukemia cells on 10 th Day at Dose 80 mg / kg; conditions: at 80 mg/kg
Mus musculus [17] = experiment: Increase in life span of mice with L1210 leukemia cells at a dose of 40 mg/kg; assay type: functional
Mus musculus [18] = species: Mus musculus; experiment: Compound was tested against weight change in mice with L1210 leukemia cells on 10 th Day at Dose 20 mg / kg; conditions: at 20 mg/kg
Mus musculus [19] = species: Mus musculus; experiment: Compound was tested against weight change in mice with L1210 leukemia cells on 10 th Day at Dose 40 mg / kg; conditions: at 40 mg/kg
L1210 [20] = experiment: Compound was tested for its inhibitory concentration to inhibit the growth of wild type L1210 cells and a subline ( L1210 / R81 ).; assay type: functional, cell-based; conditions: Mus musculus
Mus musculus [21] = experiment: Increase in life span of mice with L1210 leukemia cells at a dose of 80 mg/kg; Toxic; assay type: functional, organism-based; design: dose 80 mg/kg

SMILES: Nc1nc(N)c2nc(CNc3ccc(C(=O)N[C@@H](CCC(=O)O)C(=O)O)cc3)cnc2n1 [AMINOPTERIN]
- IC50/[E] [1]: 0.5
- IC50 (Homo sapiens [2]): 0.32 µM
- IC50 (Homo sapiens [3]): 1 nM
- Survival (Mus musculus [4]): 17 days
- ILS at 0.5 mg/kg (Mus musculus [5]): 89%
- Survival (Mus musculus [6]): 20 days
- ILS at 1 mg/kg (Mus musculus [7]): 122%
- IC50 (Dihydrofolate reductase): 20 nM
- Weight change (Mus musculus [8]): -4%
- Weight change (Mus musculus [9]): -5%
- IC50 (L1210 [10]; Mus musculus, L1210): 3 nM

SMILES: Nc1nc(N)c2nc(CNc3ccc(C(=O)NC(CCC(=O)NCc4ccccc4)C(=O)O)cc3)cnc2n1 (configuration not stated)
- IC50/[E] [1]: 2.2
- IC50 (Homo sapiens [2]): 6 µM
- Survival (Mus musculus [11]): 12 days
- ILS at 20 mg/kg (Mus musculus [12]): 33%
- IC50 (Homo sapiens [13]): 65 nM
- Survival (Mus musculus [14]): Toxic
- Survival (Mus musculus [15]): 14 days
- Weight change (Mus musculus [16]): -26%
- ILS at 40 mg/kg (Mus musculus [17]): 56%
- IC50 (Dihydrofolate reductase): 87 nM
- Weight change (Mus musculus [18]): 13%
- Weight change (Mus musculus [19]): 3%
- IC50 (L1210 [20]): 17 µM
- IC50 (L1210 [10]; Mus musculus, L1210): 5 nM
- IC50 (L1210 [10]; l1210): 7.1 nM
- ILS (Mus musculus [21]): Toxic

Source: ChEMBL document CHEMBL1123432, “Methotrexate analogues. 28. Synthesis and biological evaluation of new gamma-monoamides of aminopterin and methotrexate” (J Med Chem, 1986)
